{
  "source": "patent US6040303A",
  "about": "“7-phenyl-1, 4-diazepane compounds, process for their preparation, and pharmaceutical compositions containing them” (Solvay Pharmaceuticals GmbH, priority 1997, dated 2000)",
  "key": {"[1]": {"system": "stool passage through the colon of the rat", "assay": "Influencing of colon passage: barium sulfate elimination after oral administration in rats", "type": "in vivo", "procedure": "2. Investigation of the activity of the compounds on stool passage through the colon of the rat.\nThe effects of the test substances on the transport of stools through the large intestine were examined in rats after feeding. After feeding, the beginning of elimination and the mean dwell time of barium sulfate in the colon were determined as a measurement of the colon motility leading to elimination of stools.\nAfter oral administration of the test substance, the animals were administered 2 ml of an 80% barium sulfate suspension via an artificial outlet at the caecum. The animals were placed in metabolism cages, and the faeces were collected at one hour intervals over 24 hours. The content of barium sulfate in the faeces was measured using radiography, and the beginning of elimination of barium sulfate and the mean retention time were determined therefrom. The delays in the beginning of elimination and prolongations of the mean residence time of the barium sulfate achieved in this experimental arrangement with various doses of the test substance of Example 1 can be seen from the following Table 2. The time interval up to the beginning of elimination and the mean retention time are given in percentages relative to the values obtained in a control test without test substance (=100%)."}, "human NK-1 receptors": {"biological_target": "T1, human NK-1 receptors (Homo sapiens, UniProt P25103)", "T1 construct": "expressed in transfected cells; host or cells: CHO cells (membrane preparation)", "T1 sequence (P25103 whole entry)": "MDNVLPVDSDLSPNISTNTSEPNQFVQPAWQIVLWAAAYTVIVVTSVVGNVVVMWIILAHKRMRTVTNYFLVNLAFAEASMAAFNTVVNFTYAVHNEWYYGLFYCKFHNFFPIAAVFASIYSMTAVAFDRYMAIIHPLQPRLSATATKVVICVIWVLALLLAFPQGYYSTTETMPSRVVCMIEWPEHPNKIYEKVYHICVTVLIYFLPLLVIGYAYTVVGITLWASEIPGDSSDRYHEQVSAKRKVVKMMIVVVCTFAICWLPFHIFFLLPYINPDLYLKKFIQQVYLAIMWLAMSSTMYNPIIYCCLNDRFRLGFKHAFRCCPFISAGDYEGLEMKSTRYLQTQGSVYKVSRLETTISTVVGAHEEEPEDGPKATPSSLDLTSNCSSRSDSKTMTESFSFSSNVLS", "assay": "Binding affinity to human NK-1 receptors ([3H]-substance P displacement, membranes of CHO cells)", "conditions": "membrane preparation of CHO cells expressing human NK-1 receptor, Ki calculated from IC50, read-out: In vitro binding to human NK-1 receptors - Ki value", "procedure": "1. Determination of the binding power of the test substances to NK-1 receptors.\nThe affinity of the test substances to human NK-1 receptors was measured in vitro, and the inhibition of the binding of the physiological neurokinin substance P to neurokinin-1 receptors was determined.\nThe receptor binding studies were performed with [^3 H]-substance P as ligand. For the binding test, different samples of a membrane preparation of CHO cells (=egg cells of the Chinese hamster, […]), which express the human NK-1 receptor, were incubated with a solution of the marked ligand, with the incubation mixtures containing no test substance or additions of different concentrations of test substance. Then, bound and free ligands in each of the samples were separated with the aid of glass-fiber filtration. The fraction remaining in the filter was washed several times with buffer solution, and then the radioactivity of the fraction remaining in the filter was measured using a beta scintillation counter. That concentration which effects half maximum displacement of the bound ligand was determined as IC50 of the respective test substance. From this, the corresponding inhibition constant (Ki value) of the test substance was calculated.\nThe example numbers listed for the compounds of Formula I relate to the following preparative examples."}, "[2]": {"system": "visceral sensitivity to pain in rats (distension-induced contractions of the abdominal muscles)", "assay": "Influencing of the visceral sensitivity to pain: distension-induced abdominal contractions in rats", "type": "in vivo", "conditions": "rat, subcutaneous, 20 minutes after administration", "source_text": "3. Investigation of the activity of the compounds on the visceral sensitivity to pain in rats.\nVisceral pain leads to visceral reactions which manifest themselves, inter alia, by contractions of the abdominal muscles. The number of contractions of the abdominal muscles occurring after a mechanical pain stimulus caused by distending the large intestine is thus a measurement for determining the visceral sensitivity to pain.\nThe inhibiting activity of the test substances on distension-induced abdominal contractions was tested in rats. The distension of the large intestine with an introduced balloon was used as the stimulus; the contraction of the abdominal muscles was measured as response. One hour after the sensitising of the large intestine by instillation of dilute acetic acid (0.6%, 1.5 ml), a latex balloon was introduced and inflated to 100 mbar for 10 minutes. During this time, the contractions of the abdominal muscles were counted. 20 minutes after subcutaneous administration of the test substance, this measurement was repeated. The activity of the test substance was calculated as a percentage reduction in the counted contractions compared with the control. The reductions in the number of abdominal contractions achieved with different doses of the test substance of Example 1 are listed in percentages, relative to the control values (=100%) measured before ingestion of the substance in the following Table 3."}},
  "data": [
    {"smiles": "COc1ccccc1CN(C)CCCC(=O)N1CCC(c2ccccc2)N(C(=O)c2cc(C(F)(F)F)cc(C(F)(F)F)c2)CC1", "note": "(stereo not shown) [Example 1, 1-(3,5-bistrifluoromethylbenzoyl)-4-{[3-[N-(2-methoxybenzyl)-N-methyl]amino]propylcarbonyl}-7-phenyl-1,4-diazepane]", "values": [
      {"measurement": "Mean retention time in % relative to control value = 100%", "setting": "[1]; 10 μmole/kg", "result": 98, "unit": "%"},
      {"measurement": "Time interval until beginning of elimination in % relative to control value = 100%", "setting": "[1]; 10 μmole/kg", "result": 100, "unit": "%"},
      {"measurement": "Mean retention time in % relative to control value = 100%", "setting": "[1]; 21.5 μmole/kg", "result": 106, "unit": "%"},
      {"measurement": "Time interval until beginning of elimination in % relative to control value = 100%", "setting": "[1]; 21.5 μmole/kg", "result": 115, "unit": "%"},
      {"measurement": "Mean retention time in % relative to control value = 100%", "setting": "[1]; 100 μmole/kg", "result": 119, "unit": "%"},
      {"measurement": "Time interval until beginning of elimination in % relative to control value = 100%", "setting": "[1]; 100 μmole/kg", "result": 138, "unit": "%"},
      {"measurement": "Ki", "setting": "human NK-1 receptors", "result": 12, "unit": "nM"},
      {"measurement": "Reduction in the number of distension-induced contractions of the abdominal muscles in % relative to control value = 100%", "setting": "[2]; 10 μmole/kg", "result": 33, "unit": "%"},
      {"measurement": "Reduction in the number of distension-induced contractions of the abdominal muscles in % relative to control value = 100%", "setting": "[2]; 21.5 μmole/kg", "result": 39, "unit": "%"},
      {"measurement": "Reduction in the number of distension-induced contractions of the abdominal muscles in % relative to control value = 100%", "setting": "[2]; 100 μmole/kg", "result": 61, "unit": "%"}
    ]},
    {"smiles": "COc1ccccc1CNCC(=O)N1CCC(c2ccccc2)N(C(=O)c2cc(C)cc(C)c2)CC1", "note": "(stereo not shown) [Example 4, 1-(3,5-dimethylbenzoyl)-4-{[N-(2-methoxybenzyl)amino]acetyl}-7-phenyl-1,4-diazepane]", "values": [
      {"measurement": "Ki", "setting": "human NK-1 receptors", "result": 8, "unit": "nM"}
    ]},
    {"smiles": "COc1ccccc1CN(C)CCCC(=O)N1CCC(c2ccccc2)N(C(=O)c2cc(C(F)(F)F)cc(C(F)(F)F)c2)CC1", "note": "(single isomer, unassigned; (-)) [Example 2, (-)-1-(3,5-bistrifluoromethylbenzoyl)-4-{[3-[N-(2-methoxybenzyl)-N-methyl]amino]propylcarbonyl}-7-phenyl-1,4-diazepane]", "values": [
      {"measurement": "Ki", "setting": "human NK-1 receptors", "result": 10, "unit": "nM"}
    ]},
    {"smiles": "COc1ccccc1CNCCCC(=O)N1CCC(c2ccccc2)N(C(=O)c2cc(C(F)(F)F)cc(C(F)(F)F)c2)CC1", "note": "(stereo not shown) [Example 14]", "values": [
      {"measurement": "Ki", "setting": "human NK-1 receptors", "result": 10, "unit": "nM"}
    ]}
  ]
}
